Consider two molecules from patent EP0026672B1, “Immobilized lactase and its use in hydrolysing lactose” (SUMITOMO CHEMICAL COMPANY, LIMITED, priority 1979, dated 1981).

The target in test [1] is T1, immobilized lactase: Aspergillus oryzae lactase covalently attached (glutaraldehyde) on macroporous amphoteric phenol-formaldehyde ion-exchange resin (Aspergillus oryzae, UniProt Q2UCU3).
T1 construct: the lactase originated from Aspergillus oryzae is immobilized on one of the carriers; host or cells: Aspergillus oryzae (natural producer)
Briefly: Km and Ki of the immobilized lactase, general characteristics. In kind it is biochemical. The settings on record: pH 4.5, 30°C, substrate; lactose; value in brackets. The method, then: The immobilized lactase (0.1 to 0.3 ml) is suspended in a 0.05M acetate buffer solution (pH 4.5). To this solution, a solution of lactose in the same kind of buffer solution as above is added to give a 13.3 w/v % lactose solution. The solution was shaken at 30°C for 15 minutes with a shaker (100 rpm, shaking width; 3.5 cm). After the removal of the immobilized lactase by filtration, the content of the glucose in the filtrate is determined using glucose oxidase, peroxidase and dye system. The amount of the enzyme which produces 1 p mole of glucose in one minute is defined as 1 unit (1 ILU). The pH level and the temperature of the measurement of the activity will be stated in each case in the specification.

The target in test [2] is T2, lactase obtained from a strain of Aspergillus oryzae (extracellular enzyme, unimmobilized) (Aspergillus oryzae, UniProt Q2UCU3).
T2 construct: the lactase obtained from a strain of Aspergillus oryzae having; host or cells: Aspergillus oryzae (natural producer)
T2 sequence (Q2UCU3 19-1005): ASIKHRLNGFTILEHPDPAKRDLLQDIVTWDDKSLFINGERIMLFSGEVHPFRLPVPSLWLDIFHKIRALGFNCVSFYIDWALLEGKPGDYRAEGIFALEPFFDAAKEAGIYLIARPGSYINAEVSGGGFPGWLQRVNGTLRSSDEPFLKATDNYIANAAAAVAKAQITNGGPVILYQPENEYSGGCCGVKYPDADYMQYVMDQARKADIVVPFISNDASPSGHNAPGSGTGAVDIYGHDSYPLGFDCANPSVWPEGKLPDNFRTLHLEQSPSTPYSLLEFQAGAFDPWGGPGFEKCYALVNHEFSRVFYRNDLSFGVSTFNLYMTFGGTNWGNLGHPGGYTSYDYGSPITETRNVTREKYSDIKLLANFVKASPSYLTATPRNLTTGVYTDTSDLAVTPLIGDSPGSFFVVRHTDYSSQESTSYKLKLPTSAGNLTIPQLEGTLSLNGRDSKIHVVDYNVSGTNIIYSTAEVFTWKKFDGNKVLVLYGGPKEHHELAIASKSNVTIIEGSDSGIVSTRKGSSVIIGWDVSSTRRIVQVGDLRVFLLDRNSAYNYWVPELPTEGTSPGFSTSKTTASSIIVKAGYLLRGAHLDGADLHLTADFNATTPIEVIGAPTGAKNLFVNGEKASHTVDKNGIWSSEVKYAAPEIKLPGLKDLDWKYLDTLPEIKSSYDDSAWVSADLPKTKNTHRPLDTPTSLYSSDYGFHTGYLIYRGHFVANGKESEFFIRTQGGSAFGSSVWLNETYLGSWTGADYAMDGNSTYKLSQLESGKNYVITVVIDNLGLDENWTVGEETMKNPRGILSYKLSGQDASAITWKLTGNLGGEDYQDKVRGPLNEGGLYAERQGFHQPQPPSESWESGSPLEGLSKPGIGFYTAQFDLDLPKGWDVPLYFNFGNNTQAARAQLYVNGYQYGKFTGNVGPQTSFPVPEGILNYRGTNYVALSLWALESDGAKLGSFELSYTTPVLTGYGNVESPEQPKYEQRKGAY
Briefly: Km and Ki of the unimmobilized lactase, lactose hydrolysis. In kind it is biochemical. The method, then:
Ki=7±4 mole/m^3 (0.007±0.004 molell) (pH 4.5, 30°C, substrate; lactose). It is believed that the characteristics of the lactase are well defined by the above data, and some other properties are given below:
In the present specification, 1 ILU is defined as the amount of lactase which produces 1 µ mole per minute of glucose at pH 4.5 at 30°C when a 13.3 w/v% of lactose solution is used as the substrate. The quantity of glucose thus prepared is defined by using glycose oxidase-peroxidase- dye system. When the measurement of the activity (unit) is carried out at a different pH or temperature, the pH or the temperature will specifically be given in each case.

`OC[C@H]1O[C@@H](O[C@H]2[C@H](O)[C@@H](O)C(O)O[C@@H]2CO)[C@H](O)[C@@H](O)[C@H]1O` (stereo partly shown) [lactose]: the “Michaelis constant Km” value in test [1] was found to be 0.15±0.1 mole/I. Also, in test [2] (lactase dry powder of Example 3 (Shinnihon Kagaku Kogyo Co., 73 ILU/mg)), the Km value is given as 0.11 mole/I.
Consider `OC[C@H]1OC(O)[C@H](O)[C@@H](O)[C@H]1O` (stereo partly shown) [galactose], for which the “Inhibition constant by galactose Ki” value in test [1] stood at 150 ± 100 mM. Besides, the Ki in test [2] (read-out: Inhibition constant by galactose Ki, pH 4.5, 30°C, substrate, lactose, value in brackets) is 7 ± 4 mM.
